Literature values in patent US20220305008A1, “TREATMENT OF CANCER HAVING GNAQ OR GNA11 GENETIC MUTATIONS WITH PROTEIN KINASE C INHIBITORS” (IDEAYA BIOSCIENCES, INC., priority 2019, published 2022).

How the values were obtained:
[1] = tested on: metastatic uveal melanoma (MUM); conditions: patients with MUM (metastatic uveal melanoma)
[2] = in vivo, po

CC1(N)CCN(c2cccnc2NC(=O)c2nc(-c3ncccc3C(F)(F)F)cnc2N)CC1 [IDE196]
anti-tumor activity [1]: preliminary anti-tumor activity
safety and tolerability of dose [2]: safe and tolerable
